Reference: patent US7435721B2, “Transport peptides such as C-terminal Erns peptide and analogues thereof” (Pepscan Systems B.V., priority 2000, dated 2008)
Values after ≈ are worked out from the molar mass of the structure shown.

Key:
[1] = system: guinea pig erythrocytes; test: Hemolytic assay, guinea pig erythrocytes; assay type: cell-based; conditions: 1% v/v, one hour at 37° C.
Protocol: Hemolytic assay. Hemolytic activity of various peptide concentrations was determined by incubation with human, guinea pig or sheep erythrocyte suspensions (final erythrocyte concentration, 1% v/v) for one hour at 37° C. After cooling and centrifugation, the optical density of the supernatants were measured at 540 nm. Peptide concentrations causing 50% hemolysis (EC50) were derived from the dose-response curves.

[2] = system: Escherichia coli ATCC 25922; test: Antimicrobial assay (MIC), E. coli; assay type: cell-based; conditions: overnight at 37° C.
Protocol: Antimicrobial assay. Two bacterial strains (Escherichia coli ATCC 25922 and Enterococcus faecalis ATCC 29212) were inoculated on heart infusion agar with 5% sheep blood and incubated aerobically overnight at 37° C. From the pure cultures, suspensions were made in saline to a density of 0.5 McFarland. These suspensions were diluted ten-fold in Mueller Hinton II broth, resulting in a final inoculum of approximately 10^7 cfu/ml.
Standard 96-well microtiter trays were filled with 100 ill of two-fold dilutions of peptide in physiologic salt solution in each well, resulting in the following concentration range: 4000, 2000, 1000, 500, 250, 125, 62.25, 31.63, 15.82, 7.96 and 0 μg/ml. The trays in column 12 were filled with 200 μl MH II broth (negative control).
Columns 1-11 of the microtiter trays were filled with 100 μl of the final inoculum of the bacterial suspensions, thus diluting the concentrations of the peptide two fold, resulting in the following peptide concentration range in the wells: 2000, 1000, 500, 250, 125, 62.25, 31.63, 15.82, 7.96, 3.98 and 0 μg/ml. In rows B, C and D, 100 μl of the final inoculum of E. coli and, in rows E, F and G, 100 μl of the final inoculum of E. faecalis was pipetted. The final bacterial concentration was approximately 5×10^5 cfu/well. All trays were sealed and incubated overnight at 37° C. After incubation, the microtiter trays were inspected visually for bacterial growth and the absorbance of the cultures at 630 nm (A630) was determined with an ELISA-reader. […] The experiment was performed independently in triplicate. The test was repeated again in triplicate after two days with the final peptide concentration range in the wells: 5000, 2500, 1250, 625, 312.5, 156.25, 78.12, 39.06, 19.58, 9.79, 4.88, 2.44 and 1.22 μg/ml.

Row | Structure (SMILES) | Hemolysis (peptide concentration causing 50% hemolysis) [1] [mg/mL] | MIC (minimal inhibitory concentration needed to inhibit bacterial growth) [2] [µg/mL]
1 | CC[C@H](C)[C@H](NC(=O)[C@H](CCCNC(=N)N)NC(=O)[C@H](CC(C)C)NC(=O)[C@H](CCC(N)=O)NC(=O)[C@H](CCCNC(=N)N)NC(=O)CNC(=O)[C@H](CC(C)C)NC(=O)[C@H](Cc1c[nH]c2ccccc12)NC(=O)[C@H](CO)NC(=O)[C@@H](NC(=O)[C@@H](NC(=O)[C@H](CCCNC(=N)N)NC(=O)[C@H](C)NC(=O)[C@H](C)NC(=O)CNC(=O)[C@H](CCC(N)=O)NC(=O)[C@H](CCCNC(=N)N)NC(=O)[C@H](C)NC(=O)[C@H](CC(N)=O)NC(=O)[C@H](CCC(=O)O)NC(=O)[C@@H](NC(=O)[C@@H](NC(=O)[C@H](CC(N)=O)NC(=O)[C@@H](NC(=O)[C@H](CCSC)NC(=O)CNC(=O)[C@H](CC(=O)O)NC(=O)[C@H](CC(C)C)NC(=O)[C@H](CC(C)C)NC(=O)[C@H](Cc1ccc(O)cc1)NC(=O)[C@H](CC(C)C)NC(=O)[C@H](C)NC(=O)[C@@H](NC(=O)[C@H](CC(=O)O)NC(=O)CCCC[C@@H]1SC[C@@H]2NC(=O)N[C@@H]21)[C@@H](C)O)[C@@H](C)O)[C@@H](C)O)[C@@H](C)CC)C(C)C)[C@@H](C)O)C(=O)N[C@@H](C)C(=O)NCC(=O)N[C@@H](CCCCN)C(=O)N[C@@H](CCCNC(=N)N)C(=O)N[C@@H](CC(C)C)C(=O)N[C@@H](CCC(=O)O)C(N)=O [177-216] | 0.23 | 224 (≈ 47.8 µM)
2 | CC[C@H](C)[C@H](NC(=O)[C@H](CCCNC(=N)N)NC(=O)[C@H](CC(C)C)NC(=O)[C@H](CCC(N)=O)NC(=O)[C@H](CCCNC(=N)N)NC(=O)CNC(=O)[C@H](CC(C)C)NC(=O)[C@H](Cc1c[nH]c2ccccc12)NC(=O)[C@H](CO)NC(=O)[C@@H](NC(=O)[C@@H](NC(=O)[C@H](CCCNC(=N)N)NC(=O)[C@H](C)NC(=O)[C@H](C)NC(=O)CNC(=O)[C@H](CCC(N)=O)NC(=O)[C@H](CCCNC(=N)N)NC(=O)[C@H](C)NC(=O)[C@H](CC(N)=O)NC(=O)[C@H](CCC(=O)O)NC(=O)[C@@H](NC(=O)[C@@H](NC(=O)[C@H](CC(N)=O)NC(=O)[C@@H](NC(=O)[C@H](CCSC)NC(=O)CNC(=O)[C@H](CC(=O)O)NC(=O)[C@H](CC(C)C)NC(=O)[C@H](CC(C)C)NC(=O)[C@H](Cc1ccc(O)cc1)NC(=O)CCCC[C@@H]1SC[C@@H]2NC(=O)N[C@@H]21)[C@@H](C)O)[C@@H](C)O)[C@@H](C)CC)C(C)C)[C@@H](C)O)C(=O)N[C@@H](C)C(=O)NCC(=O)N[C@@H](CCCCN)C(=O)N[C@@H](CCCNC(=N)N)C(=O)N[C@@H](CC(C)C)C(=O)N[C@@H](CCC(=O)O)C(=O)NCC(=O)N[C@@H](CCCNC(=N)N)C(=O)N[C@@H](CO)C(=O)N[C@@H](CCCCN)C(N)=O [181-220] | 0.09 | 51 (≈ 10.8 µM)
3 | CC[C@H](C)[C@H](NC(=O)[C@H](CCCNC(=N)N)NC(=O)[C@H](CC(C)C)NC(=O)[C@H](CCC(N)=O)NC(=O)[C@H](CCCNC(=N)N)NC(=O)CNC(=O)[C@H](CC(C)C)NC(=O)[C@H](Cc1c[nH]c2ccccc12)NC(=O)[C@H](CO)NC(=O)[C@@H](NC(=O)[C@@H](NC(=O)[C@H](CCCNC(=N)N)NC(=O)[C@H](C)NC(=O)[C@H](C)NC(=O)CNC(=O)[C@H](CCC(N)=O)NC(=O)[C@H](CCCNC(=N)N)NC(=O)[C@H](C)NC(=O)[C@H](CC(N)=O)NC(=O)[C@H](CCC(=O)O)NC(=O)[C@@H](NC(=O)[C@@H](NC(=O)[C@H](CC(N)=O)NC(=O)[C@@H](NC(=O)[C@H](CCSC)NC(=O)CNC(=O)[C@H](CC(=O)O)NC(=O)CCCC[C@@H]1SC[C@@H]2NC(=O)N[C@@H]21)[C@@H](C)O)[C@@H](C)O)[C@@H](C)CC)C(C)C)[C@@H](C)O)C(=O)N[C@@H](C)C(=O)NCC(=O)N[C@@H](CCCCN)C(=O)N[C@@H](CCCNC(=N)N)C(=O)N[C@@H](CC(C)C)C(=O)N[C@@H](CCC(=O)O)C(=O)NCC(=O)N[C@@H](CCCNC(=N)N)C(=O)N[C@@H](CO)C(=O)N[C@@H](CCCCN)C(=O)N[C@H](C(=O)N[C@@H](Cc1c[nH]c2ccccc12)C(=O)N[C@@H](Cc1ccccc1)C(N)=O)[C@@H](C)O [184-223] | 0.15 | 46 (≈ 9.67 µM)
4 | CC[C@H](C)[C@H](NC(=O)[C@H](CCCNC(=N)N)NC(=O)[C@H](CC(C)C)NC(=O)[C@H](CCC(N)=O)NC(=O)[C@H](CCCNC(=N)N)NC(=O)CNC(=O)[C@H](CC(C)C)NC(=O)[C@H](Cc1c[nH]c2ccccc12)NC(=O)[C@H](CO)NC(=O)[C@@H](NC(=O)[C@@H](NC(=O)[C@H](CCCNC(=N)N)NC(=O)[C@H](C)NC(=O)[C@H](C)NC(=O)CNC(=O)[C@H](CCC(N)=O)NC(=O)[C@H](CCCNC(=N)N)NC(=O)[C@H](C)NC(=O)[C@H](CC(N)=O)NC(=O)[C@H](CCC(=O)O)NC(=O)CCCC[C@@H]1SC[C@@H]2NC(=O)N[C@@H]21)C(C)C)[C@@H](C)O)C(=O)N[C@@H](C)C(N)=O [191-211] | >0.33 | 395 (≈ 153 µM)
5 | CC[C@H](C)[C@H](NC(=O)[C@H](CCCNC(=N)N)NC(=O)[C@H](CC(C)C)NC(=O)[C@H](CCC(N)=O)NC(=O)[C@H](CCCNC(=N)N)NC(=O)CNC(=O)[C@H](CC(C)C)NC(=O)[C@H](Cc1c[nH]c2ccccc12)NC(=O)[C@H](CO)NC(=O)[C@@H](NC(=O)[C@@H](NC(=O)[C@H](CCCNC(=N)N)NC(=O)[C@H](C)NC(=O)[C@H](C)NC(=O)CNC(=O)[C@H](CCC(N)=O)NC(=O)[C@H](CCCNC(=N)N)NC(=O)[C@H](C)NC(=O)[C@H](CC(N)=O)NC(=O)[C@H](CCC(=O)O)NC(=O)CCCC[C@@H]1SC[C@@H]2NC(=O)N[C@@H]21)C(C)C)[C@@H](C)O)C(=O)N[C@@H](C)C(=O)NCC(=O)N[C@@H](CCCCN)C(=O)N[C@@H](CCCNC(=N)N)C(=O)N[C@@H](CC(C)C)C(=O)N[C@@H](CCC(=O)O)C(N)=O [191-216] | >0.33 | 95 (≈ 30 µM)
6 | CC[C@H](C)[C@H](NC(=O)[C@H](CCCNC(=N)N)NC(=O)[C@H](CC(C)C)NC(=O)[C@H](CCC(N)=O)NC(=O)[C@H](CCCNC(=N)N)NC(=O)CNC(=O)[C@H](CC(C)C)NC(=O)[C@H](Cc1c[nH]c2ccccc12)NC(=O)[C@H](CO)NC(=O)[C@@H](NC(=O)[C@@H](NC(=O)[C@H](CCCNC(=N)N)NC(=O)[C@H](C)NC(=O)[C@H](C)NC(=O)CNC(=O)[C@H](CCC(N)=O)NC(=O)[C@H](CCCNC(=N)N)NC(=O)[C@H](C)NC(=O)[C@H](CC(N)=O)NC(=O)[C@H](CCC(=O)O)NC(=O)CCCC[C@@H]1SC[C@@H]2NC(=O)N[C@@H]21)C(C)C)[C@@H](C)O)C(=O)N[C@@H](C)C(=O)NCC(=O)N[C@@H](CCCCN)C(=O)N[C@@H](CCCNC(=N)N)C(=O)N[C@@H](CC(C)C)C(=O)N[C@@H](CCC(=O)O)C(=O)NCC(=O)N[C@@H](CCCNC(=N)N)C(=O)N[C@@H](CO)C(=O)N[C@@H](CCCCN)C(N)=O [191-220] | 0.31 | 47 (≈ 13.1 µM)
7 | CC[C@H](C)[C@H](NC(=O)[C@H](CCCNC(=N)N)NC(=O)[C@H](CC(C)C)NC(=O)[C@H](CCC(N)=O)NC(=O)[C@H](CCCNC(=N)N)NC(=O)CNC(=O)[C@H](CC(C)C)NC(=O)[C@H](Cc1c[nH]c2ccccc12)NC(=O)[C@H](CO)NC(=O)[C@@H](NC(=O)[C@@H](NC(=O)[C@H](CCCNC(=N)N)NC(=O)[C@H](C)NC(=O)[C@H](C)NC(=O)CNC(=O)[C@H](CCC(N)=O)NC(=O)[C@H](CCCNC(=N)N)NC(=O)[C@H](C)NC(=O)[C@H](CC(N)=O)NC(=O)[C@H](CCC(=O)O)NC(=O)CCCC[C@@H]1SC[C@@H]2NC(=O)N[C@@H]21)C(C)C)[C@@H](C)O)C(=O)N[C@@H](C)C(=O)NCC(=O)N[C@@H](CCCCN)C(=O)N[C@@H](CCCNC(=N)N)C(=O)N[C@@H](CC(C)C)C(=O)N[C@@H](CCC(=O)O)C(=O)NCC(=O)N[C@@H](CCCNC(=N)N)C(=O)N[C@@H](CO)C(=O)N[C@@H](CCCCN)C(=O)N[C@H](C(=O)N[C@@H](Cc1c[nH]c2ccccc12)C(=O)N[C@@H](Cc1ccccc1)C(N)=O)[C@@H](C)O [191-223] | 0.15 | 41 (≈ 10.2 µM)
